Reference: ChEMBL document CHEMBL3407479, “Structure-activity relationship for the oxadiazole class of antibiotics” (J Med Chem, 2015)
Converted amounts (≈) assume the structure as drawn.

Test system: Staphylococcus aureus
Assay: Antibacterial activity against methicillin-sensitive Staphylococcus aureus ATCC 29213 after 16 to 20 hrs by broth microdilution method
Format: functional

Row | SMILES | MIC [µg/mL]
1 | COc1ccc(-c2nc(-c3ccc(Oc4ccc(F)cc4)cc3)no2)cc1[N+](=O)[O-] | ≥ 128
2 | O=[N+]([O-])c1c[nH]nc1-c1nc(-c2ccc(Oc3ccccc3)cc2)no1 | 2 (≈ 5.73 µM)
3 | Nc1ccc(-c2nc(-c3ccc(Oc4ccc(C(F)(F)F)cc4)cc3)no2)cc1 | 1 (≈ 2.52 µM)
4 | OCC#Cc1c[nH]nc1-c1nc(-c2ccc(Oc3ccc(C(F)(F)F)cc3)cc2)no1 | 4 (≈ 9.38 µM)
5 | O=[N+]([O-])c1c[nH]c(-c2nc(-c3ccc(Oc4ccc(C(F)(F)F)cc4)cc3)no2)c1 | 8 (≈ 19.2 µM)
6 | Oc1ccc(-c2nc(-c3ccc(Oc4ccc(F)cc4)cc3)no2)cc1F | 2 (≈ 5.46 µM)
7 | Nc1cc(-c2nc(-c3ccc(Oc4ccc(F)cc4)cc3)no2)cnc1O | ≥ 128
8 | COc1ccc(-c2nc(-c3ccc(Oc4ccccc4)cc3)no2)cc1[N+](=O)[O-] | ≥ 128
9 | Nc1cc(-c2nc(-c3ccc(Oc4ccc(F)cc4)cc3)no2)ccc1O | ≥ 128
10 | Fc1ccc(Oc2ccc(-c3noc(-c4cc[nH]n4)n3)cc2)cc1 | ≥ 128
11 | Oc1ccc(-c2nc(-c3ccc(Oc4ccc(F)cc4)cc3)no2)cn1 | ≥ 128
12 | COc1ccc(-c2nc(-c3ccc(Oc4ccc(C(F)(F)F)cc4)cc3)no2)cc1[N+](=O)[O-] | ≥ 128
13 | N#Cc1c[nH]nc1-c1nc(-c2ccc(Oc3ccc(C(F)(F)F)cc3)cc2)no1 | 2 (≈ 5.03 µM)
14 | NS(=O)(=O)c1ccc(-c2nc(-c3ccc(Oc4ccc(F)cc4)cc3)no2)cc1 | ≥ 128
15 | C[Si](C)(C)C#Cc1c[nH]nc1-c1nc(-c2ccc(Oc3ccc(C(F)(F)F)cc3)cc2)no1 | ≥ 128
16 | COc1ccc(-c2nc(-c3ccc(Oc4ccc(F)cc4)cc3)no2)cc1OC | ≥ 128
17 | FC(F)(F)c1ccc(Oc2ccc(-c3noc(-c4n[nH]cc4I)n3)cc2)cc1 | 2 (≈ 4.01 µM)
18 | Nc1ccc(-c2nc(-c3ccc(Oc4ccc(C(F)(F)F)cc4)cc3)no2)cc1F | 2 (≈ 4.82 µM)
19 | O=C1C[C@@H](c2nc(-c3ccc(Oc4ccc(C(F)(F)F)cc4)cc3)no2)CN1 | ≥ 128
20 | FC(F)(F)c1ccc(Oc2ccc(-c3noc(-c4n[nH]cc4NC4CCCCC4)n3)cc2)cc1 | ≥ 128
21 | FC(F)(F)c1ccc(Oc2ccc(-c3noc(-c4n[nH]cc4Br)n3)cc2)cc1 | 1 (≈ 2.22 µM)
22 | Oc1ccc(-c2nc(-c3ccc(Oc4ccc(C(F)(F)F)cc4)cc3)no2)cc1O | 2 (≈ 4.83 µM)
23 | Nc1ccc(-c2nc(-c3ccc(Oc4ccccc4)cc3)no2)cc1 | 4 (≈ 12.1 µM)

Row | SMILES | MIC [µg/mL]
24 | Cc1ccc(S(=O)(=O)N2CCC(c3nc(-c4ccc(Oc5ccccc5)cc4)no3)CC2)cc1 | ≥ 128
25 | Oc1ccccc1-c1nc(-c2ccc(Oc3ccccc3)cc2)no1 | ≥ 128
26 | Clc1c[nH]nc1-c1nc(-c2ccc(Oc3ccccc3)cc2)no1 | 1 (≈ 2.95 µM)
27 | Cl.c1ccc(Oc2ccc(-c3noc(C4CCCN4)n3)cc2)cc1 (stereo unspecified) | 64
28 | Fc1ccc(Oc2ccc(-c3noc(-c4ccc(Br)cc4)n3)cc2)cc1 | ≥ 128
29 | NS(=O)(=O)c1ccc(-c2nc(-c3ccc(Oc4ccc(C(F)(F)F)cc4)cc3)no2)cc1 | ≥ 128
30 | COc1ccc(-c2nc(-c3ccc(Oc4ccccc4)cc3)no2)cc1N | ≥ 128
31 | Oc1c(F)cc(-c2nc(-c3ccc(Oc4ccc(F)cc4)cc3)no2)cc1F | 8 (≈ 20.8 µM)
32 | CCCCNc1c[nH]nc1-c1nc(-c2ccc(Oc3ccc(C(F)(F)F)cc3)cc2)no1 | ≥ 128
33 | C=CCOc1cc(N)ccc1-c1nc(-c2ccc(Oc3ccccc3)cc2)no1 | 8 (≈ 20.8 µM)
34 | O=c1[nH]c(-c2ccc(Oc3ccccc3)cc2)no1 | ≥ 128
35 | Fc1ccc(-c2nc(-c3ccc(Oc4ccc(C(F)(F)F)cc4)cc3)no2)cc1 | ≥ 128
36 | [O-][n+]1ccc(-c2nc(-c3ccc(Oc4ccccc4)cc3)no2)cc1 | ≥ 128
37 | O=P(O)(O)c1ccc(-c2nc(-c3ccc(Oc4ccc(F)cc4)cc3)no2)cc1 | ≥ 128
38 | FC(F)(F)c1ccc(Oc2ccc(-c3noc(-c4c[nH]c5ncccc45)n3)cc2)cc1 | ≥ 128
39 | Nc1cc(-c2nc(-c3ccc(Oc4ccc(C(F)(F)F)cc4)cc3)no2)cnc1O | ≥ 128
40 | O=C(Nc1c[nH]nc1-c1nc(-c2ccc(Oc3ccc(C(F)(F)F)cc3)cc2)no1)c1ccccc1 | ≥ 128
41 | NCCCCc1nc(-c2ccc(Oc3ccccc3)cc2)no1 | ≥ 128
42 | Nc1ccc(-c2nc(-c3ccc(Oc4ccccc4)cc3)no2)c(O)c1 | ≥ 128
43 | COc1cc(-c2nc(-c3ccc(Oc4ccc(C(F)(F)F)cc4)cc3)no2)ccc1O | ≥ 128
44 | Nc1cncc(-c2nc(-c3ccc(Oc4ccc(C(F)(F)F)cc4)cc3)no2)c1 | ≥ 128
45 | O=[N+]([O-])c1c[nH]nc1-c1nc(-c2ccc(Oc3ccc(C(F)(F)F)cc3)cc2)no1 | 2 (≈ 4.79 µM)
46 | Cc1nc(-c2ccc(Oc3ccccc3)cc2)no1 | ≥ 128

Row | SMILES | MIC [µg/mL]
47 | O=C(Nc1c[nH]nc1-c1nc(-c2ccc(Oc3ccc(C(F)(F)F)cc3)cc2)no1)c1ccccn1 | ≥ 128
48 | Brc1c[nH]nc1-c1nc(-c2ccc(Oc3ccccc3)cc2)no1 | 1 (≈ 2.61 µM)
49 | O=[N+]([O-])c1c[nH]c(-c2nc(-c3ccc(Oc4ccc(F)cc4)cc3)no2)c1 | ≥ 128
50 | Oc1ccc(-c2nc(-c3ccc(Oc4ccc(F)cc4)cc3)no2)cc1 | 1 (≈ 2.87 µM)
51 | Nc1c[nH]c(-c2nc(-c3ccc(Oc4ccc(F)cc4)cc3)no2)c1 | ≥ 128
52 | O=[N+]([O-])c1cc(-c2nc(-c3ccc(Oc4ccc(F)cc4)cc3)no2)cnc1O | 8 (≈ 20.3 µM)
53 | FC(F)(F)c1ccc(Oc2ccc(-c3noc(-c4n[nH]c5ccccc45)n3)cc2)cc1 | ≥ 128
54 | CCOP(=O)(OCC)c1c[nH]nc1-c1nc(-c2ccc(Oc3ccc(C(F)(F)F)cc3)cc2)no1 | ≥ 128
55 | Fc1ccc(Oc2ccc(-c3noc(-c4c[nH]cn4)n3)cc2)cc1 | ≥ 128
56 | Oc1ccc(-c2nc(-c3ccc(Oc4ccccc4)cc3)no2)cc1F | 4 (≈ 11.5 µM)
57 | O=[N+]([O-])c1ccc(-c2nc(-c3ccc(Oc4ccc(C(F)(F)F)cc4)cc3)no2)cc1 | ≥ 128
58 | FC(F)(F)c1ccc(Oc2ccc(-c3noc(-c4cc[nH]n4)n3)cc2)cc1 | ≥ 128
59 | Nc1ccc(-c2nc(-c3ccc(Oc4ccccc4)cc3)no2)cc1F | ≥ 128
60 | c1ccc(Oc2ccc(-c3noc(-c4ccc5[nH]ccc5c4)n3)cc2)cc1 | 2 (≈ 5.66 µM)
61 | Ic1c[nH]nc1-c1nc(-c2ccc(Oc3ccccc3)cc2)no1 | 1 (≈ 2.32 µM)
62 | Oc1c(F)cc(-c2nc(-c3ccc(Oc4ccc(C(F)(F)F)cc4)cc3)no2)cc1F | 2 (≈ 4.6 µM)
63 | c1ccc(Oc2ccc(-c3noc(-c4ccc5[nH]ncc5c4)n3)cc2)cc1 | ≥ 128
64 | Nc1cncc(-c2nc(-c3ccc(Oc4ccc(F)cc4)cc3)no2)c1 | ≥ 128
65 | CC(C)c1cc(-c2nc(-c3ccc(Oc4ccc(F)cc4)cc3)no2)n[nH]1 | ≥ 128
66 | Nc1c(F)cc(-c2nc(-c3ccc(Oc4ccccc4)cc3)no2)cc1F | 8 (≈ 21.9 µM)
67 | Cl.Nc1ccc(-c2nc(-c3ccc(Oc4ccc(C(F)(F)F)cc4)cc3)no2)cc1 | 1
68 | Oc1ccc(-c2nc(-c3ccc(Oc4ccc(C(F)(F)F)cc4)cc3)no2)cn1 | ≥ 128
69 | Fc1ccc(-c2nc(-c3ccc(Oc4ccccc4)cc3)no2)cc1 | ≥ 128

Row | SMILES | MIC [µg/mL]
70 | Oc1cccc(-c2nc(-c3ccc(Oc4ccccc4)cc3)no2)c1 | ≥ 128
71 | Nc1c[nH]nc1-c1nc(-c2ccc(Oc3ccccc3)cc2)no1 | 16 (≈ 50.1 µM)
72 | Fc1ccc(Oc2ccc(-c3noc(-c4ccc5[nH]ccc5c4)n3)cc2)cc1 | 1 (≈ 2.69 µM)
73 | Cc1ccc(S(=O)(=O)N2CCC(c3nc(-c4ccc(Oc5ccc(F)cc5)cc4)no3)CC2)cc1 | ≥ 128
74 | Cl.NC(Cc1ccccc1)c1nc(-c2ccc(Oc3ccccc3)cc2)no1 (stereo unspecified) | ≥ 128
75 | O=C(O)c1ccc(-c2nc(-c3ccc(Oc4ccc(F)cc4)cc3)no2)cc1 | ≥ 128
76 | Oc1ccc(-c2nc(-c3ccc(Oc4ccccc4)cc3)no2)cc1 | 1 (≈ 3.03 µM)
77 | COc1ccc(-c2nc(-c3ccc(Oc4ccc(C(F)(F)F)cc4)cc3)no2)cc1OC | ≥ 128
78 | COC(=O)c1ccc(-c2nc(-c3ccc(Oc4ccc(F)cc4)cc3)no2)cc1 | ≥ 128
79 | CC(=O)Nc1ccc(-c2nc(-c3ccc(Oc4ccc(C(F)(F)F)cc4)cc3)no2)cc1 | ≥ 128
80 | Oc1ccc(-c2nc(-c3ccc(Oc4ccc(C(F)(F)F)cc4)cc3)no2)cc1F | 2 (≈ 4.8 µM)
81 | O=[N+]([O-])c1cc(-c2nc(-c3ccc(Oc4ccc(F)cc4)cc3)no2)ccc1O | ≥ 128
82 | Fc1ccc(Oc2ccc(-c3noc(-c4cc[nH]c4)n3)cc2)cc1 | ≥ 128
83 | Nc1c(F)cc(-c2nc(-c3ccc(Oc4ccc(C(F)(F)F)cc4)cc3)no2)cc1F | 4 (≈ 9.23 µM)
84 | O=[N+]([O-])c1cc(-c2nc(-c3ccc(Oc4ccc(C(F)(F)F)cc4)cc3)no2)cnc1O | 8 (≈ 18 µM)
85 | FC(F)(F)c1ccc(Oc2ccc(-c3noc(-c4n[nH]cc4NC4CCCC4)n3)cc2)cc1 | ≥ 128
86 | COc1cc(-c2nc(-c3ccc(Oc4ccccc4)cc3)no2)ccc1N | ≥ 128
87 | NC(=O)c1ccc(-c2nc(-c3ccc(Oc4ccc(F)cc4)cc3)no2)cc1 | ≥ 128
88 | O=C1C[C@H](c2nc(-c3ccc(Oc4ccc(C(F)(F)F)cc4)cc3)no2)CN1 | ≥ 128
89 | CC(C)(C)OC(=O)N1CCC(Nc2c[nH]nc2-c2nc(-c3ccc(Oc4ccc(C(F)(F)F)cc4)cc3)no2)CC1 | ≥ 128
90 | CS(=O)(=O)Nc1ccc(-c2nc(-c3ccc(Oc4ccc(C(F)(F)F)cc4)cc3)no2)cc1 | ≥ 128
91 | c1ccc(Oc2ccc(-c3noc(C4CCOCC4)n3)cc2)cc1 | ≥ 128
